According to the NIST ThermoML archive (doi:10.1016/j.jct.2011.09.028):

Details: 101.33 kPa, Liquid, Vibrating tube method

CCn1cc[n+](C)c1.N#C[B-](C#N)(C#N)C#N [1-ethyl-3-methylimidazolium tetracyanoborate]
Details | mass density [kg/m3]
288.15 K | 1044.44
293.15 K | 1040.43
298.15 K | 1036.44
303.15 K | 1032.47
308.15 K | 1028.54
313.15 K | 1024.64
318.15 K | 1020.76
